Consider eleven molecules from patent US12522623B2, “Small molecule STAT protein degraders” (THE REGENTS OF THE UNIVERSITY OF MICHIGAN, priority 2020, dated 2026).

For experiment [1], the target named is T1, STAT3 (Homo sapiens, UniProt P40763).
T1 construct: endogenous in cells; host or cells: MOLM-16 (acute leukemia cells)
Description: Fluorescent immunoblotting of STAT3 protein in MOLM-16 cells (estimated DC50). Conditions: MOLM-16, 4 h. The class given is cell-based. The method, then: In vitro cultured cells or xenograft tumors were lysed 1×Cell Lysis Buffer (Cell Signaling Technology, #9803), resolved by SDS-PAGE NuPAGE gel (Thermo Fisher Scientific), and transferred to a PVDF membrane (Bio Rad). For chemiluminescence immunoblotting, membranes were blocked for 1 h using 5% Blotting-Grade Blocker (#1706404, Bio Rad) in 1×Tris-buffered saline with Tween 20 (TBST, Pierce). Antibodies used were: rabbit mAbs for STAT3 (Cell Signaling Technology, #4368, #12640) and p-STAT3 (Y705) (Cell Signaling Technology, #9245, #52075). HRP conjugated goat anti-rabbit IgG (H+L) (#A27036) secondary antibodies was from Thermo Fisher Scientific. GAPDH (Santa Cruz Technology, sc-47724HRP) and actin (Santa Cruz Technology, sc-8432HRP, sc-47778HRP) were loading controls. For fluorescent immunoblotting, membranes were blocked using Odyssey TBS Blocker Buffer (LI-COR). IRDye 680RD and 800CW Dye-labeled secondary antibodies (LI-COR) were used. The washed membranes were scanned using Odyssey CLx imager (LI-COR). The intensity of Western blot signaling was quantitated using the Odyssey software or Image Studio V5.2 (LI-COR).

Experiment [2] deals with MOLM-16 cells. The experiment in a line: Cell growth inhibition, 4-day proliferation assay (CellTiter-Glo). The class given is cell-based. The settings on record: MOLM16, 96 h; MOLM-16, 4 days. The method, then:
The effect of representative Compounds of the Disclosure on cell viability was determined in a 4-day proliferation assay. Cells were maintained in the appropriate culture medium at 37° C. and an atmosphere of 5% CO2. All the cell lines were used within three months of thawing fresh vials. Cells were seeded in 384-well white plates (Corning Costar) at a density of 2,000 cells/well in 25 μl of culture medium. Compounds were serially diluted in the appropriate medium, and 25 μl of the diluted compounds were added to the cells. After the addition of compounds, the cells were incubated at 37° C. in an atmosphere of 5% CO2 for 4 days. Cell viability was determined using the CellTiter-Glo® Luminescent Cell Viability Assay Kit (Promega, Madison, WI) according to the manufacturers' instructions. Essentially, 50 μl of CellTiter-Glo® Reagent was added to each well, and then the plates were incubated at room temperature for 20 minutes. The luminescent signal was measured using a Tecan multimode microplate reader (Tecan, Morrisville, NC). The readings were normalized to the DMSO-treated cells and the IC50 was calculated by nonlinear regression (four parameters sigmoid fitted with variable slope, least squares fit, and no constraint) analysis using the GraphPad Prism software.

T1 sequence (P40763 whole entry): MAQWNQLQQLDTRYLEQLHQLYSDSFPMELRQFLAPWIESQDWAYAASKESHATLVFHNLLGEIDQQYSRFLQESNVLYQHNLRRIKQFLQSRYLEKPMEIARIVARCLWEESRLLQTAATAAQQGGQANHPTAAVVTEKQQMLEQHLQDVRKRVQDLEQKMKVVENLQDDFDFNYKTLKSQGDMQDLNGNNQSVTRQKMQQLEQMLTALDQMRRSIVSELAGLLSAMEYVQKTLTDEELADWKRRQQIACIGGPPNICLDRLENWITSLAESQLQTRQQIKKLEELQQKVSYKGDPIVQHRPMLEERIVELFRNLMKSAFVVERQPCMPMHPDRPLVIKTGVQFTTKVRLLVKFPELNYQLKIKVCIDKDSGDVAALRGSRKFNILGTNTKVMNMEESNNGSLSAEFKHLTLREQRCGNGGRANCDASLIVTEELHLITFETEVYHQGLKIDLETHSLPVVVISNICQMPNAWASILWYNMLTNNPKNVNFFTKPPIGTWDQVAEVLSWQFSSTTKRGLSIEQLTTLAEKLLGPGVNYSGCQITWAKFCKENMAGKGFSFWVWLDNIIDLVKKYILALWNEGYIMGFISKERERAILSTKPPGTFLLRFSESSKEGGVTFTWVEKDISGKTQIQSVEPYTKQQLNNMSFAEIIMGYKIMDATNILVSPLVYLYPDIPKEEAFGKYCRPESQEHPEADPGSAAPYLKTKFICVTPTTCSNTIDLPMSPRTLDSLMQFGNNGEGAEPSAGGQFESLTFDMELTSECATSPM

For orientation: IC50 means the concentration needed to halve the response being measured. Higher therefore signals weaker potency in that assay. As for `NC(=O)CC[C@H](NC(=O)[C@@H]1CC[C@@H]2CCN(C(=O)CCCCCC#Cc3cccc4c3CN(C3CCC(=O)NC3=O)C4=O)C[C@H](NC(=O)c3cc4cc(C(F)(F)P(=O)(O)O)ccc4s3)C(=O)N21)c1nc(-c2ccc(F)c(Cl)c2)cs1` (stereo partly drawn) [Cpd. No. 14, ((2-(((5S,8S,10aR)-8-(((S)-4-amino-1-(4-(3-chloro-4-fluorophenyl)thiazol-2-yl)-4-oxobutyl)carbamoyl)-3-(8-(2-(2,6-dioxopiperidin-3-yl)-1-oxoisoindolin-4-yl)oct-7-ynoyl)-6-oxodecahydropyrrolo[1,2-a][1,5]diazocin-5-yl)carbamoyl)benzo[b]thiophen-5-yl)difluoromethyl)phosphonic acid], in experiment [1], the DC50 is 0.05 µM. This molecule also displayed an IC50 in experiment [2] of 0.037 µM.
As for `NC(=O)CC[C@H](NC(=O)[C@@H]1CC[C@@H]2CCN(C(=O)CCCCCC#Cc3cccc4c3CN(C3CCC(=O)NC3=O)C4=O)C[C@H](NC(=O)c3cc4cc(C(F)(F)P(=O)(O)O)ccc4s3)C(=O)N21)c1nc(-c2ccc(Cl)cc2)cs1` (stereo partly drawn) [Cpd. No. 13, ((2-(((5S,8S,10aR)-8-(((S)-4-amino-1-(4-(4-chlorophenyl)thiazol-2-yl)-4-oxobutyl)carbamoyl)-3-(8-(2-(2,6-dioxopiperidin-3-yl)-1-oxoisoindolin-4-yl)oct-7-ynoyl)-6-oxodecahydropyrrolo[1,2-a][1,5]diazocin-5-yl)carbamoyl)benzo[b]thiophen-5-yl)difluoromethyl)phosphonic acid], the DC50 in experiment [1] is 0.1 µM.
As to `NC(=O)CC[C@H](NC(=O)[C@@H]1CC[C@@H]2CCN(C(=O)CCCCCC#Cc3cccc4c3CN(C3CCC(=O)NC3=O)C4=O)C[C@H](NC(=O)c3cc4cc(C(F)(F)P(=O)(O)O)ccc4s3)C(=O)N21)c1nc(-c2ccc(F)cc2)cs1` (stereo partly drawn) [Cpd. No. 12, ((2-(((5S,8S,10aR)-8-(((S)-4-amino-1-(4-(4-fluorophenyl)thiazol-2-yl)-4-oxobutyl)carbamoyl)-3-(8-(2-(2,6-dioxopiperidin-3-yl)-1-oxoisoindolin-4-yl)oct-7-ynoyl)-6-oxodecahydropyrrolo[1,2-a][1,5]diazocin-5-yl)carbamoyl)benzo[b]thiophen-5-yl)difluoromethyl)phosphonic acid], the DC50 in experiment [1] is 0.1 µM.
`NC(=O)CC[C@H](NC(=O)[C@@H]1CC[C@@H]2CCN(C(=O)CCCCCC#Cc3cccc4c3CN(C3CCC(=O)NC3=O)C4=O)C[C@H](NC(=O)c3cc4cc(C(F)(F)P(=O)(O)O)ccc4s3)C(=O)N21)c1nc2c(s1)Cc1ccccc1-2` (stereo partly drawn) [Cpd. No. 6, ((2-(((5S,8S,10aR)-8-(((S)-4-amino-1-(8H-indeno[1,2-d]thiazol-2-yl)-4-oxobutyl)carbamoyl)-3-(8-(2-(2,6-dioxopiperidin-3-yl)-1-oxoisoindolin-4-yl)oct-7-ynoyl)-6-oxodecahydropyrrolo[1,2-a][1,5]diazocin-5-yl)carbamoyl)benzo[b]thiophen-5-yl)difluoromethyl)phosphonic acid]: the DC50 in experiment [1] is 0.1 µM. The molecule also showed an IC50 in experiment [2] of 0.064 µM.
Regarding `NC(=O)CC[C@H](NC(=O)[C@@H]1CC[C@@H]2CCN(C(=O)CCCCCC#Cc3cccc4c3CN(C3CCC(=O)NC3=O)C4=O)C[C@H](NC(=O)c3cc4cc(C(F)(F)P(=O)(O)O)ccc4s3)C(=O)N21)c1ncc(-c2ccc(Cl)cc2)s1` (stereo partly drawn) [Cpd. No. 7, ((2-(((5S,8S,10aR)-8-(((S)-4-amino-1-(5-(4-chlorophenyl)thiazol-2-yl)-4-oxobutyl)carbamoyl)-3-(8-(2-(2,6-dioxopiperidin-3-yl)-1-oxoisoindolin-4-yl)oct-7-ynoyl)-6-oxodecahydropyrrolo[1,2-a][1,5]diazocin-5-yl)carbamoyl)benzo[b]thiophen-5-yl)difluoromethyl)phosphonic acid], in experiment [1], the DC50 is 0.05 µM.
Take `NC(=O)CC[C@H](NC(=O)[C@@H]1CC[C@@H]2CCN(C(=O)CCCCCC#Cc3cccc4c3CN(C3CCC(=O)NC3=O)C4=O)C[C@H](NC(=O)c3cc4cc(C(F)(F)P(=O)(O)O)ccc4s3)C(=O)N21)c1ncc(Cc2ccccc2)s1` (stereo partly drawn) [Cpd. No. 5, ((2-(((5S,8S,10aR)-8-(((S)-4-amino-1-(5-benzylthiazol-2-yl)-4-oxobutyl)carbamoyl)-3-(8-(2-(2,6-dioxopiperidin-3-yl)-1-oxoisoindolin-4-yl)oct-7-ynoyl)-6-oxodecahydropyrrolo[1,2-a][1,5]diazocin-5-yl)carbamoyl)benzo[b]thiophen-5-yl)difluoromethyl)phosphonic acid]: the DC50 in experiment [1] is 0.1 µM. In addition, it took 0.049 µM to reach half-maximal inhibition in experiment [2] (IC50).
Taken in the same sequence, the figures for `NC(=O)OC[C@H](NC(=O)[C@@H]1CC[C@@H]2CCN(C(=O)CCCCCC#Cc3cccc4c3CN(C3CCC(=O)NC3=O)C4=O)C[C@H](NC(=O)c3cc4cc(C(F)(F)P(=O)(O)O)ccc4s3)C(=O)N21)c1ncc(-c2ccccc2)s1` (stereo partly drawn) [Cpd. No. 8, ((2-(((5S,8S,10aR)-8-(((S)-2-(carbamoyloxy)-1-(5-phenylthiazol-2-yl)ethyl)carbamoyl)-3-(8-(2-(2,6-dioxopiperidin-3-yl)-1-oxoisoindolin-4-yl)oct-7-ynoyl)-6-oxodecahydropyrrolo[1,2-a][1,5]diazocin-5-yl)carbamoyl)benzo[b]thiophen-5-yl)difluoromethyl)phosphonic acid] were 0.1 µM and 0.013 µM.
As for `NC(=O)CC[C@H](NC(=O)[C@@H]1CC[C@@H]2CCN(C(=O)CCCCCC#Cc3cccc4c3CN(C3CCC(=O)NC3=O)C4=O)C[C@H](NC(=O)c3cc4cc(C(F)(F)P(=O)(O)O)ccc4s3)C(=O)N21)c1ncc(-c2ccccc2F)s1` (stereo partly drawn) [Cpd. No. 16, ((2-(((5S,8S,10aR)-8-(((S)-4-amino-1-(5-(2-fluorophenyl)thiazol-2-yl)-4-oxobutyl)carbamoyl)-3-(8-(2-(2,6-dioxopiperidin-3-yl)-1-oxoisoindolin-4-yl)oct-7-ynoyl)-6-oxodecahydropyrrolo[1,2-a][1,5]diazocin-5-yl)carbamoyl)benzo[b]thiophen-5-yl)difluoromethyl)phosphonic acid], the DC50 in experiment [1] is 0.05 µM. For the same molecule, in experiment [2], the IC50 turned out to be 0.068 µM.
In the case of `NC(=O)CC[C@H](NC(=O)[C@@H]1CC[C@@H]2CCN(C(=O)CCCCCC#Cc3cccc4c3CN(C3CCC(=O)NC3=O)C4=O)C[C@H](NC(=O)c3cc4cc(C(F)(F)P(=O)(O)O)ccc4s3)C(=O)N21)c1nc(-c2ccc(F)c(F)c2)cs1` (stereo partly drawn) [Cpd. No. 11, ((2-(((5S,8S,10aR)-8-(((S)-4-amino-1-(4-(3,4-difluorophenyl)thiazol-2-yl)-4-oxobutyl)carbamoyl)-3-(8-(2-(2,6-dioxopiperidin-3-yl)-1-oxoisoindolin-4-yl)oct-7-ynoyl)-6-oxodecahydropyrrolo[1,2-a][1,5]diazocin-5-yl)carbamoyl)benzo[b]thiophen-5-yl)difluoromethyl)phosphonic acid], in experiment [1], the DC50 is 0.1 µM.
Still for that read-out and setting: under `CC(C)(C)c1ccc(-c2cnc([C@H](CCC(N)=O)NC(=O)[C@@H]3CC[C@@H]4CCN(C(=O)CCCCCC#Cc5cccc6c5CN(C5CCC(=O)NC5=O)C6=O)C[C@H](NC(=O)c5cc6cc(C(F)(F)P(=O)(O)O)ccc6s5)C(=O)N43)s2)cc1` (stereo partly drawn) [Cpd. No. 17, ((2-(((5S,8S,10aR)-8-(((S)-4-amino-1-(5-(4-(tert-butyl)phenyl)thiazol-2-yl)-4-oxobutyl)carbamoyl)-3-(8-(2-(2,6-dioxopiperidin-3-yl)-1-oxoisoindolin-4-yl)oct-7-ynoyl)-6-oxodecahydropyrrolo[1,2-a][1,5]diazocin-5-yl)carbamoyl)benzo[b]thiophen-5-yl)difluoromethyl)phosphonic acid] stands 0.2 µM; under `CC(C)(C)c1cnc([C@H](CCC(N)=O)NC(=O)[C@@H]2CC[C@@H]3CCN(C(=O)CCCCCC#Cc4cccc5c4CN(C4CCC(=O)NC4=O)C5=O)C[C@H](NC(=O)c4cc5cc(C(F)(F)P(=O)(O)O)ccc5s4)C(=O)N32)s1` (stereo partly drawn) [Cpd. No. 15, ((2-(((5S,8S,10aR)-8-(((S)-4-amino-1-(5-(tert-butyl)thiazol-2-yl)-4-oxobutyl)carbamoyl)-3-(8-(2-(2,6-dioxopiperidin-3-yl)-1-oxoisoindolin-4-yl)oct-7-ynoyl)-6-oxodecahydropyrrolo[1,2-a][1,5]diazocin-5-yl)carbamoyl)benzo[b]thiophen-5-yl)difluoromethyl)phosphonic acid], 0.5 µM.
